Read-outs that look alike come from different tables or passages of the source.
What was measured:
E. tenella PKG = E. tenella PKG (Eimeria tenella, UniProt Q8MMZ8); experiment: biochemical; assay type: biochemical; conditions: for IC50: read-out: IC50, inhibition of PKG catalytic activity
Protocol: The enzyme inhibition assay involves adding PKG or an extract containing PKG to mixtures of enzyme substrates (one of which is radiolableled) and the test compound, each of which are present in known concentrations. The amount of the enzyme is chosen such that less than 20% of the radiolabeled substrate (usually [^32P]- or [^33P]-ATP,) is consumed during the assay. The assay is carried out with the test compound at a series of different dilution levels. After a period of incubation, the labeled portion of the ATP substrate becomes covalently attached by enzymatic action to the peptide or protein substrate. This reaction product is separated from unincorporated precursor and counted.
E. tenella PKG purified fraction (obtained as described in Example 3) (0.05 μl) is incubated for 2 hours at room temperature in 20 μl of an incubation mixture containing: 25 mM HEPES, pH 7.4, 10 mM MgCl2, 5 mM beta-mercaptoethanol, 20 mM beta-glycerophosphate (or 100 μM sodium orthovanadate), 10 μM cGMP, 2 μM ATP, 10 nM [^33P] ATP (2000 Ci/mmole), 400 μM Kemptide (or 2 mM Kemptide or 0.43 mg/ml myelin basic protein). The reaction is then quenched with 2.5 μl of 0.25 M phosphoric acid per 20 μl assay volume, and the mixture is spotted on Whatman P81 chromatography paper. The chromatography paper is allowed to dry for 2 minutes, washed 5 times for 3 min. each with 150 mls of 75 mM phosphoric acid, then washed briefly with 95% ethanol. After air drying, labeled kemptide remaining on the filter is quantitated by liquid scintillation counting.
E. tenella PKG purified fraction as described above (0.05 μl) was incubated for 2 hours at room temperature in 20 μl of an incubation mixture containing: 25 mM HEPES, pH 7.4, 10 mM MgCl2, 5 mM beta-mercaptoethanol, 20 mM beta-glycerophosphate (or 100 μM sodium orthovanadate), 10 μM cGMP, 2 μM ATP, 10 nM [^33P] ATP (2000 Ci/mmole), 400 μM Kemptide (or 2 mM Kemptide or 0.43 mg/ml myelin basic protein). […] After air drying, labeled kemptide remaining on the filter was quantitated by liquid scintillation counting.

[1] = test system: E. tenella PKG (120 kDa protein); experiment: Competitive binding assay using [3H] Inhibitor Compound; set-up: species or system Eimeria tenella; conditions: purified native PKG fraction
Protocol: PKG is incubated with appropriately diluted [^3H] Inhibitor Compound for 60 minutes on ice and free ligand is separated from bound ligand by elution through 0.8 ml G-25 gel filtration columns (purchased from AGTC). The void volume, containing ligand-bound protein, is collected and radioactivity assessed by liquid scintillation counting. For competitive binding studies, excess or appropriately diluted cold competitor(s) are added simultaneously with, or 0.01-5 minutes before, the addition of radiolabeled compound. The concentration of the test compound required to inhibit 50% (IC50) of the binding of the labeled inhibitor to the parasite drug binding protein(s) is calculated.
For the competitive binding assay PKG may be the S100 fraction, crude preparation containing PKG activity, or recombinant PKG. Generally, the PKG preparation contains 20-50 μg of protein.
The S100 fraction was dialyzed against 2 L of Buffer A (30 mM sodium phosphate, pH 7.4, 1 mM DTT, 1 mM EDTA, 20% glycerol, 10 mM sodium fluoride, 0.1 mM sodium orthovanadate) overnight at room temperature. The dialysate was centrifuged at 100,000×g for 1 hour and the pellet discarded. […]
(d) cGMP agarose affinity chromatography. […] Fractions were analyzed for [^3H]-Inhibitor Compound binding, PKG activity and by silver staining following polyacrylamide gel electrophoresis. […]

Chain of E. tenella PKG (Q8MMZ8 2-1003): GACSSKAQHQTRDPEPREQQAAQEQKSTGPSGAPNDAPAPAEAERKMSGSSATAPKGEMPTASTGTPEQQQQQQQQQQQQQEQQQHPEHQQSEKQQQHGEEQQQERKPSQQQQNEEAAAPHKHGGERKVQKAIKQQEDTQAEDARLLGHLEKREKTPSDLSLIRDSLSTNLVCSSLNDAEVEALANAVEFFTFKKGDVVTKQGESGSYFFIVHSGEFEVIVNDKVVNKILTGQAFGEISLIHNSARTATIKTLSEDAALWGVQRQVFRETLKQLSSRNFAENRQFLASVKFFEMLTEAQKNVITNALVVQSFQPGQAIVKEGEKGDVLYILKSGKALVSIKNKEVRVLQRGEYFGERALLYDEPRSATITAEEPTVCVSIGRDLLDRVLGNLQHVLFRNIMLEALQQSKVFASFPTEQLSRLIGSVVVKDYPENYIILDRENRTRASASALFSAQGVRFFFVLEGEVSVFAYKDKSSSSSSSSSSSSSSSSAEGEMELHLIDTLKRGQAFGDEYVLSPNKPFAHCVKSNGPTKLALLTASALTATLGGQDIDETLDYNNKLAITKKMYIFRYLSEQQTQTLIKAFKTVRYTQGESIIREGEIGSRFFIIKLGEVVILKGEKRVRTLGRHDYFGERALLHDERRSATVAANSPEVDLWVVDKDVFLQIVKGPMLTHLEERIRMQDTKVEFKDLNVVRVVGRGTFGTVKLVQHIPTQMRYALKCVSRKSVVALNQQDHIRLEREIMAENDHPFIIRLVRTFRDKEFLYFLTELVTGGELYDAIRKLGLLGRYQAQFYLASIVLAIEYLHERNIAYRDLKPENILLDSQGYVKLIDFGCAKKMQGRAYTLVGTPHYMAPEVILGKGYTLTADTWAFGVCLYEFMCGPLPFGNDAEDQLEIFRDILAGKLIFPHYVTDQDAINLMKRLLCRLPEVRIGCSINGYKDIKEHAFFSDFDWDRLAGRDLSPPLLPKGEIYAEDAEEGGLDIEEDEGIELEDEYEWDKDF

Structure (SMILES): CN1CCC(c2cc(-c3ccncc3)c(-c3ccc(F)cc3)[nH]2)CC1 [Inhibitor Compound, 2-(4-fluorophenyl)-5-(N-methylpiperidin-4-yl)-3-(4-pyridyl)pyrrole]
- IC50 (E. tenella PKG; native E. tenella PKG): < 5 nM
- IC50 (E. tenella PKG; recombinant expressed E. tenella PKG (Et.PKG7, Sf9 cells)): < 5 nM
- binding to the 120 kDa E. tenella protein (PKG) [1]: specifically binds

Structure (SMILES): Nc1nc2c(ncn2[C@@H]2O[C@@H]3COP(=O)(O)O[C@H]3[C@H]2O)c(=O)[nH]1 [cGMP]
- stimulation of kinase activity by cyclic nucleotide cofactor (E. tenella PKG; biochemically purified native E. tenella protein, compared with absence of cyclic nucleotide cofactors): greater than 400 fold
